The results in this text go back to patent EP4745153A1, “GLP-1, GIP AND GCG RECEPTOR […] USE THEREOF” (Jiangsu Hengrui Pharmaceuticals Co., Ltd., priority 2023, dated 2025).

One data set concerns the target T1, human GIPR (Homo sapiens, UniProt P48546).
T1 construct: expressed in transfected cells; host or cells: CHO-K1 clonal cell line
T1 sequence (P48546 22-466): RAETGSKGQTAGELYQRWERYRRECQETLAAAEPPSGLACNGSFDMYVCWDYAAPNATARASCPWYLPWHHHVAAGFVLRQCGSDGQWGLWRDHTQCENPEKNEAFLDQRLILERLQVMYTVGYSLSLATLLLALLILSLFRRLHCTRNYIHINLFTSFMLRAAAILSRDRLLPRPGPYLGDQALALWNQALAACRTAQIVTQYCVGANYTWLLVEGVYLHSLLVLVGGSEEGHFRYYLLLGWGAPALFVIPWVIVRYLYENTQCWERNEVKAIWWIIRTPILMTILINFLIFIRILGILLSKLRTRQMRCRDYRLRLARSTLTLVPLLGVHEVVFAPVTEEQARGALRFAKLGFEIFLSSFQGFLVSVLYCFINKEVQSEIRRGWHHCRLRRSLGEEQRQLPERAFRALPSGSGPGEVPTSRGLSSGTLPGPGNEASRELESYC
The experiment in a line: cAMP HTRF agonist activity assay in CHO-K1 cells expressing GIPR. Note: 5% FBS, 0.1% Casein. Conditions: read-out: Activity against human GIPR (EC50 nM). In kind it is cell-based. The protocol:
Functional activity was determined in CHO-K1 clonal cell lines expressing GIPR, GLP-1R, and GCGR. […] Each recipient cell (5000 cells/well) was added to an SV 96-well plate (Cisbio, 66PL96025) and incubated with the prepared polypeptide at 37°Cfor 30 min. The resulting increase in intracellular cAMP was quantitatively measured using the cAMP-GS dynamic HTRF assay kit (Cisbio, 62AM4PEJ). Briefly, the intracellular cAMP levels were determined by adding cAMP-d2 conjugate in cell lysis buffer, followed by the antibody anti-cAMP-Eu cryptate (also in cell lysis buffer).
Using the maximum response percentage vs. the added polypeptide concentration, the relative EC50 values were derived through nonlinear regression analysis and fitted to a four-parameter logarithmic equation. For specific data, refer to Tables 7-1 to 7-8 below. […]
(TR-FRET usually uses a lanthanide donor and a delayed reading to cut background.)

A short description of data set [1]: Pharmacokinetics in mice after single intravenous injection. On the set-up: species or system C57 mice. The settings on record: in vivo. How it is done: Male C57 mice were used as test animals. The target compound was administered via a single intravenous injection, and the pharmacokinetic characteristics of the compound in C57 mice in vivo (plasma) were determined.
Male C57 mice, weighing approximately 25g, aged 4-6 weeks. After preparing the polypeptide compound solution using 1×PBS dissolving solution, the compound was administered intravenously at a dose of 200 nmol/kg, where each compound was administered to 3 animals. Blood samples of 60 µL were collected at 5 min, 15 min, 0.5 h, 1 h, 2 h, 4 h, 6 h, 24 h, 48 h and 72 h after the infusion was completed and transferred to centrifuge tubes containing EDTA-K2 anticoagulant. Whole blood samples were centrifuged at 4000 g for 5 min at 4°C. Plasma was separated and plasma samples were frozen and stored at -80 °C.
Sample pretreatment method: 30 µL of plasma samples was taken, and 120 µL of 0.1% formic acid in methanol containing 1 ng/mL internal standard verapamil was added. The mixture was vortexed for 5 min, and centrifuged at 10000 rpm for 10 min at low temperature. 70 µL of supernatant was taken, and 70 µL of water was added and mixed well. Analysis was performed by LC-MS instrument.
LC-MS analysis method: (1) chromatographic conditions: mobile phases A and B: 0.1% formic acid in water and 0.1% formic acid in acetonitrile, respectively; gradient elution mode; flow rate: 0.5 mL/min; injection volume: 10 µL; chromatographic column: nanomicro Unisil C18aq (4.6 mm × 150 mm, 5 µm); column temperature: 40°C. (2) Mass spectrometry conditions: For mass spectrometry, an electrospray ionization source (ESI), positive ion analysis mode, and multiple reaction monitoring (MRM) scanning mode were used.
For data processing, SCIEX OS (Version 2.1.6) software was used to quantify blood drug concentration data and PKSolver (Version 2.0) software was used to calculate pharmacokinetic parameters.

The mark [2] stands for this setting: mouse, male C57 mice, single intravenous dose 200 nmol/kg, plasma.

Where two headings read alike, the source gives them in different places. Starred links: 1 amine or outer side, 2 acyl side, 3 side chain; linkers in the order of their positions; H or OH if unused. Non-standard residues stand in square brackets, D forms with d. Residues, ends and D or L forms follow the SMILES beside them. Groups on a side chain read outwards from the residue. ξ: configuration not given here. *: point of attachment. C20 diacid = O=C(O)CCCCCCCCCCCCCCCCCCC(=O)*; γGlu = O=C(O)[C@H](CCC(=O)[*:2])N[*:1]; αMeK = C[C@](N)(CCCCN)C(=O)O; ξIva = CCC(C)(N)C(=O)O; AEEA = NCCOCCOCC(=O)O; Aib = CC(C)(N)C(=O)O

As usually defined, the EC50 is the concentration needed to bring the measured effect to its halfway point. `CC[C@H](C)[C@H](NC(=O)[C@H](CO)NC(=O)[C@H](Cc1ccc(O)cc1)NC(=O)[C@H](CC(=O)O)NC(=O)[C@H](CO)NC(=O)[C@@H](NC(=O)[C@H](Cc1ccccc1)NC(=O)[C@@H](NC(=O)CNC(=O)[C@H](Cc1c[nH]cn1)NC(=O)C(C)(C)NC(=O)[C@@H](N)Cc1c[nH]cn1)[C@@H](C)O)[C@@H](C)O)C(=O)N[C@@H](CC(C)C)C(=O)N[C@@H](CC(C)C)C(=O)N[C@@H](CCC(=O)O)C(=O)N[C@@H](CCCCNC(=O)COCCOCCNC(=O)COCCOCCNC(=O)CC[C@H](NC(=O)CCCCCCCCCCCCCCCCCCC(=O)O)C(=O)O)C(=O)N[C@@H](CCC(N)=O)C(=O)N[C@@H](C)C(=O)N[C@@H](C)C(=O)N[C@@H](CCC(N)=O)C(=O)N[C@@H](CCC(=O)O)C(=O)N[C@@H](Cc1ccccc1)C(=O)N[C@H](C(=O)N[C@@H](CCC(=O)O)C(=O)N[C@@H](Cc1c[nH]c2ccccc12)C(=O)N[C@@H](CC(C)C)C(=O)N[C@@H](CC(C)C)C(=O)N[C@@H](C)C(=O)NCC(=O)NCC(=O)N1CCC[C@H]1C(=O)N[C@@H](CO)C(=O)N[C@@H](CO)C(=O)NCC(=O)N[C@@H](C)C(=O)N1CCC[C@H]1C(=O)N1CCC[C@H]1C(=O)N1CCC[C@H]1C(=O)N[C@@H](CO)C(N)=O)C(C)C` [Compound 0152] (H-H[Aib]HGTFTSDYSILLEK([AEEA-AEEA-γGlu-C20 diacid])QAAQEFVEWLLAGGPSSGAPPPS-NH2): the EC50 on human GIPR amounted to 0.009 nM.
Take `CC[C@H](C)[C@H](NC(=O)[C@H](CO)NC(=O)[C@H](CC(C)C)NC(=O)[C@H](CC(=O)O)NC(=O)[C@H](CO)NC(=O)[C@@H](NC(=O)[C@H](Cc1ccccc1)NC(=O)[C@@H](NC(=O)CNC(=O)[C@H](Cc1c[nH]cn1)NC(=O)C(C)(C)NC(=O)[C@@H](N)Cc1c[nH]cn1)[C@@H](C)O)[C@@H](C)O)C(=O)N[C@@](C)(CC(C)C)C(=O)N[C@@H](CC(C)C)C(=O)N[C@@H](CCC(=O)O)C(=O)N[C@@H](CCCCNC(=O)COCCOCCNC(=O)COCCOCCNC(=O)CC[C@H](NC(=O)CCCCCCCCCCCCCCCCCCC(=O)O)C(=O)O)C(=O)N[C@@H](CCCCN)C(=O)N[C@@H](C)C(=O)N[C@@H](C)C(=O)NC1(C(=O)N[C@@H](CCC(=O)O)C(=O)N[C@@H](Cc2ccccc2)C(=O)N[C@H](C(=O)N[C@@H](CCC(=O)O)C(=O)N[C@@H](Cc2c[nH]c3ccccc23)C(=O)N[C@@H](CC(C)C)C(=O)N[C@@H](CC(C)C)C(=O)N[C@@H](C)C(=O)NCC(=O)NCC(=O)N2CCC[C@H]2C(=O)N[C@@H](CO)C(=O)N[C@@H](CO)C(=O)NCC(=O)N[C@@H](C)C(=O)N2CCC[C@H]2C(=O)N2CCC[C@H]2C(=O)N2CCC[C@H]2C(=O)N[C@@H](CO)C(N)=O)C(C)C)CCC1` [Compound 0140]: in data set [1] (male, C57, mouse, iv), the clearance was determined as 0.115 mL/min/kg and the half-life was 558 min.
For the compound `CC[C@H](C)[C@H](NC(=O)[C@H](CO)NC(=O)[C@H](Cc1ccc(O)cc1)NC(=O)[C@H](CC(=O)O)NC(=O)[C@H](CO)NC(=O)[C@@H](NC(=O)[C@H](Cc1ccccc1)NC(=O)[C@@H](NC(=O)CNC(=O)[C@H](Cc1c[nH]cn1)NC(=O)C(C)(C)NC(=O)[C@@H](N)Cc1c[nH]cn1)[C@@H](C)O)[C@@H](C)O)C(=O)N[C@@H](CC(C)C)C(=O)N[C@@H](CC(C)C)C(=O)N[C@@H](CCC(=O)O)C(=O)N[C@@H](CCCCNC(=O)COCCOCCNC(=O)COCCOCCNC(=O)CC[C@H](NC(=O)CCCCCCCCCCCCCCCCCCC(=O)O)C(=O)O)C(=O)N[C@@H](CCC(N)=O)C(=O)N[C@@H](C)C(=O)N[C@@H](C)C(=O)N[C@@H](CCC(N)=O)C(=O)N[C@@H](CCC(=O)O)C(=O)N[C@@H](Cc1ccccc1)C(=O)N[C@H](C(=O)N[C@@H](CCC(=O)O)C(=O)N[C@@H](Cc1c[nH]c2ccccc12)C(=O)N[C@@H](CC(C)C)C(=O)N[C@@H](CC(C)C)C(=O)N[C@@H](C)C(=O)N[C@H](CCC(=O)O)C(=O)NCC(=O)N1CCC[C@H]1C(=O)N[C@@H](CO)C(=O)N[C@@H](CO)C(=O)NCC(=O)N[C@@H](C)C(=O)N1CCC[C@H]1C(=O)N1CCC[C@H]1C(=O)N1CCC[C@H]1C(=O)N[C@@H](CO)C(N)=O)C(C)C` [Compound 0153], at human GIPR, the EC50 came to 0.01 nM.
Same read-out and setting: the figure for `CC[C@H](C)[C@H](NC(=O)[C@](C)(CCCCN)NC(=O)[C@H](CO)NC(=O)[C@H](Cc1ccc(O)cc1)NC(=O)[C@H](CC(=O)O)NC(=O)[C@H](CO)NC(=O)[C@@H](NC(=O)[C@H](Cc1ccccc1)NC(=O)[C@@H](NC(=O)CNC(=O)[C@H](CCC(N)=O)NC(=O)C(C)(C)NC(=O)[C@@H](N)Cc1ccc(O)cc1)[C@@H](C)O)[C@@H](C)O)C(=O)N[C@@H](CC(C)C)C(=O)N[C@@H](CCC(=O)O)C(=O)N[C@@H](CCCCNC(=O)COCCOCCNC(=O)COCCOCCNC(=O)CC[C@H](NC(=O)CCCCCCCCCCCCCCCCCCC(=O)O)C(=O)O)C(=O)N[C@@H](CCCCN)C(=O)N[C@@H](C)C(=O)N[C@@H](C)C(=O)NC(C)(CC)C(=O)N[C@@H](CCC(=O)O)C(=O)N[C@@H](Cc1ccccc1)C(=O)N[C@H](C(=O)N[C@@H](CCC(=O)O)C(=O)N[C@@H](Cc1c[nH]c2ccccc12)C(=O)N[C@@H](CC(C)C)C(=O)N[C@@H](CC(C)C)C(=O)N[C@@H](C)C(=O)NCC(=O)NCC(=O)N1CCC[C@H]1C(=O)N[C@@H](CO)C(=O)N[C@@H](CO)C(=O)NCC(=O)N[C@@H](C)C(=O)N1CCC[C@H]1C(=O)N1CCC[C@H]1C(=O)N1CCC[C@H]1C(=O)N[C@@H](CO)C(N)=O)C(C)C` (stereo partly drawn) [Compound 0129] (H-Y[Aib]QGTFTSDYS[αMeK]ILEK([AEEA-AEEA-γGlu-C20 diacid])KAA[ξIva]EFVEWLLAGGPSSGAPPPS-NH2) is 0.002 nM.
A word on the AUC(0-inf): it is the area under the concentration-time curve extrapolated to infinity. A low value points to low exposure. Consider `CC[C@H](C)[C@H](NC(=O)[C@H](CC(C)C)NC(=O)[C@H](Cc1c[nH]c2ccccc12)NC(=O)[C@H](CCC(=O)O)NC(=O)[C@@H](NC(=O)[C@H](Cc1ccccc1)NC(=O)[C@H](CCC(=O)O)NC(=O)C(C)(CC)NC(=O)[C@H](C)NC(=O)[C@H](C)NC(=O)[C@H](CCCCN)NC(=O)[C@H](CCCCNC(=O)COCCOCCNC(=O)COCCOCCNC(=O)CC[C@H](NC(=O)CCCCCCCCCCCCCCCCCCC(=O)O)C(=O)O)NC(=O)[C@H](CCC(=O)O)NC(=O)[C@H](CC(C)C)NC(=O)[C@H](CC(C)C)NC(=O)[C@](C)(CCCCN)NC(=O)[C@H](CO)NC(=O)[C@H](Cc1ccc(O)cc1)NC(=O)[C@H](CC(=O)O)NC(=O)[C@H](CO)NC(=O)[C@@H](NC(=O)[C@H](Cc1ccccc1)NC(=O)[C@@H](NC(=O)CNC(=O)[C@H](Cc1c[nH]cn1)NC(=O)C(C)(C)NC(=O)[C@@H](N)Cc1c[nH]cn1)[C@@H](C)O)[C@@H](C)O)C(C)C)C(=O)N[C@@H](CCC(=O)O)C(=O)NCC(=O)NCC(=O)N1CCC[C@H]1C(=O)N[C@@H](CO)C(=O)N[C@@H](CO)C(=O)NCC(=O)N[C@@H](C)C(=O)N1CCC[C@H]1C(=O)N1CCC[C@H]1C(=O)N1CCC[C@H]1C(=O)N[C@@H](CO)C(N)=O` (stereo partly drawn) [Compound 0131] (H-H[Aib]HGTFTSDYS[αMeK]LLEK([AEEA-AEEA-γGlu-C20 diacid])KAA[ξIva]EFVEWLIEGGPSSGAPPPS-NH2), for which, in data set [1] (setting [2]), the AUC(0-inf) amounted to 22.5 µM·h and the C0 stood at 5.98 µM. In data set [1] (mouse, male C57 mice, single intravenous dose 200 nmol/kg, plasma, read-out: CLp), the clearance was 0.148 mL/min/kg. The half-life in data set [1] (mouse, male C57 mice, single intravenous dose 200 nmol/kg, plasma, read-out: T1/2 (converted)) is 612 min.
